{
  "source": "patent US20130302282A1",
  "about": "“Inhibitors of Hepatitis C Virus” (priority 2010, published 2013)",
  "key": {"HCV NS5B C316Y mutant": {"target": "T1, HCV NS5B C316Y mutant (Hepatitis C virus genotype 1b, UniProt Q9WMX2, C2735Y)", "T1 construct": "HCV NS5B C316Y or S365A mutant as indicated; expressed in transfected cells", "T1 sequence (Q9WMX2 2420-3010 C2735Y)": "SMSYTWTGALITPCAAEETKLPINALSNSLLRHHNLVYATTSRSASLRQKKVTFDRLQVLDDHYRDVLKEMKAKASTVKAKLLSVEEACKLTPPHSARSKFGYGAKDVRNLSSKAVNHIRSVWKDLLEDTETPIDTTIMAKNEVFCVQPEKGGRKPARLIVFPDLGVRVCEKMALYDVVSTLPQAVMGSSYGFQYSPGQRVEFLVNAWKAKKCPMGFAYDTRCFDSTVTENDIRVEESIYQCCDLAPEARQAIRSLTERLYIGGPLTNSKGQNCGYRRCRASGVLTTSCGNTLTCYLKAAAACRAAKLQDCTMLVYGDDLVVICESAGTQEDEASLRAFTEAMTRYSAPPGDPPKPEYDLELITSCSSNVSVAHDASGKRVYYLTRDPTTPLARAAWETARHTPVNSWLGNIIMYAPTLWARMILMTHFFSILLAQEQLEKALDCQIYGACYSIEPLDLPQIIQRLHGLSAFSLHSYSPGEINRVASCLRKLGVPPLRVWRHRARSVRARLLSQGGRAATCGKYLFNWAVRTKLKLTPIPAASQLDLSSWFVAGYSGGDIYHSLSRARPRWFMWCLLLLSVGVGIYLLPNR", "test": "Activity against HCV NS5B C316Y mutant", "assay_type": "cell-based", "settings": "for Inhibition of HCV N55B C316Y mutant: class symbol", "procedure": "(§1) The biological activity against HCV 1b, 1a, or 2a is indicated as being *, **, ***, or ****, which corresponds to EC50 ranges of EC50>1000 nM, 100 nM<EC50≦1000 nM, 10 nM<EC50≦100 nM, or EC50≦10 nM, respectively. The biological activity against HCV NS5B C316Y or S365A mutant is indicated as being […], which corresponds to EC50 ranges of EC50>1000 nM, 200 nM<EC50≦1000 nM, […], respectively."}, "[1]": {"test_system": "1b_Huh-Luc/Neo-ET cell line (bicistronic genotype 1b replicon in Huh 7 cells)", "test": "HCV 1b replicon assay, luciferase readout", "assay_type": "cell-based, HCV genotype 1b", "settings": "Hepatitis C virus", "in_short": "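Huh 7 cells persistently carrying a bicistronic genotype 1b luciferase replicon, treated with compound in triplicate the day after plating and incubated 72 h. Luciferase activity measured by Bright-Glo and expressed as percent of untreated control; EC50 from four-parameter fit, repeated several times.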"}, "HCV NS5B S365A mutant": {"target": "T2, HCV NS5B S365A mutant (Hepatitis C virus genotype 1b, UniProt Q9WMX2, S2784A)", "T2 construct": "HCV NS5B C316Y or S365A mutant as indicated; expressed in transfected cells", "T2 sequence (Q9WMX2 2420-3010 S2784A)": "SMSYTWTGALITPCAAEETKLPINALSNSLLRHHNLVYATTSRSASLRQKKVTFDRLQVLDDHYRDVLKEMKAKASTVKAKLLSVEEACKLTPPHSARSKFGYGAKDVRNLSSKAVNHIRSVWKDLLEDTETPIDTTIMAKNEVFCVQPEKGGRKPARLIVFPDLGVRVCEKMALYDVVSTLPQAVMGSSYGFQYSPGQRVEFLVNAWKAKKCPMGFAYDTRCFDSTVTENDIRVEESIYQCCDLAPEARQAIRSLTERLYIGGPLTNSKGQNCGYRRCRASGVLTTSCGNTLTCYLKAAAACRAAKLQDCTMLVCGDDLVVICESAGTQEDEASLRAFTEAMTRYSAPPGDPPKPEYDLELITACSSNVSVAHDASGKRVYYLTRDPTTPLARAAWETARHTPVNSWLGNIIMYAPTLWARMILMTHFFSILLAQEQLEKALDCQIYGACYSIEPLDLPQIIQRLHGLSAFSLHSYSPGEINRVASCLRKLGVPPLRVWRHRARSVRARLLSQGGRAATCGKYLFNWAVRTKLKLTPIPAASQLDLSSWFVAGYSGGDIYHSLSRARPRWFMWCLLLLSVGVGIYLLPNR", "test": "Activity against HCV NS5B S365A mutant", "assay_type": "cell-based", "settings": "for Inhibition of HCV NS5B S3865A mutant: class symbol", "procedure": "as §1"}, "HCV 2a": {"test_system": "HCV 2a", "test": "HCV 2a replicon assay", "assay_type": "cell-based", "settings": "Hepatitis C virus; class symbol; cell marked (HCV genotype 2a replicon); read-out: Inhibition of HCV genotype 2a replicon", "procedure": "Compounds of the invention can inhibit multiple genotypes of HCV selected but not limited to 1a, 1h, 2a, 3a, and 4a. The EC50s are measured in the corresponding replicon assays that are similar to HCV 1b replicon assay as described above.\nas §1"}, "[2]": {"settings": "Huh-7, 1b_Huh-Luc/Neo-ET cell line, read-out: EC50, half-maximal inhibition of HCV 1b replication"}, "[3]": {"settings": "Huh-7, numeric value, HCV genotype 1b replicon, read-out: Inhibition of HCV genotype 1b replicon (EC50)"}, "[4]": {"settings": "Huh-7, class symbol, HCV genotype 1b replicon, read-out: Inhibition of HCV genotype 1b replicon"}},
  "note": "Where two headings read alike, the source gives them in different places.",
  "data": [
    {"compound": "CNC(=O)c1c(-c2ccc(Oc3ccc(F)cc3)cc2)oc2cc3c(cc12)[C@H](C)CCCN3S(C)(=O)=O", "note": "(single isomer, unassigned) [Compound B85]", "values": [
      {"measurement": "Inhibition of HCV N55B C316Y mutant", "setting": "HCV NS5B C316Y mutant", "value": "†††"},
      {"measurement": "EC50", "setting": "[1]; [2]", "value": "≤ 10", "unit": "nM"},
      {"measurement": "EC50", "setting": "[1]; [3]", "value": 3, "unit": "nM"},
      {"measurement": "Inhibition of HCV NS5B S3865A mutant", "setting": "HCV NS5B S365A mutant", "value": "†††"}
    ]},
    {"compound": "CNC(=O)c1c(-c2ccc(F)cc2)oc2cc3c(cc12)[C@@H]1C[C@@H]1CCN3S(C)(=O)=O", "note": "(single isomer, unassigned) [Compound B132]", "values": [
      {"measurement": "Inhibition of HCV N55B C316Y mutant", "setting": "HCV NS5B C316Y mutant", "value": "†††"},
      {"measurement": "EC50", "setting": "[1]; [2]", "value": "≤ 10", "unit": "nM"},
      {"measurement": "EC50", "setting": "[1]; [4]", "value": "< 10", "unit": "nM"},
      {"measurement": "Inhibition of HCV NS5B S3865A mutant", "setting": "HCV NS5B S365A mutant", "value": "†††"}
    ]},
    {"compound": "CNC(=O)c1c(-c2ccc(Oc3ccc(F)cc3)cc2)oc2cc3c(cc12)[C@H](C)n1nncc1CN3S(C)(=O)=O", "note": "(single isomer, unassigned) [Compound B163]", "values": [
      {"measurement": "Inhibition of HCV N55B C316Y mutant", "setting": "HCV NS5B C316Y mutant", "value": "†††"},
      {"measurement": "EC50", "setting": "[1]; [2]", "value": "≤ 10", "unit": "nM"},
      {"measurement": "EC50", "setting": "[1]; [4]", "value": "< 10", "unit": "nM"},
      {"measurement": "Inhibition of HCV NS5B S3865A mutant", "setting": "HCV NS5B S365A mutant", "value": "†††"}
    ]},
    {"compound": "CNC(=O)c1c(-c2ccc(F)cc2)oc2cc3c(cc12)[C@H](C)n1nncc1CN3S(C)(=O)=O", "note": "(single isomer, unassigned) [Compound B169]", "values": [
      {"measurement": "Inhibition of HCV N55B C316Y mutant", "setting": "HCV NS5B C316Y mutant", "value": "†††"},
      {"measurement": "EC50", "setting": "[1]; [2]", "value": "≤ 10", "unit": "nM"},
      {"measurement": "EC50", "setting": "[1]; [4]", "value": "< 10", "unit": "nM"},
      {"measurement": "Inhibition of HCV NS5B S3865A mutant", "setting": "HCV NS5B S365A mutant", "value": "†††"}
    ]},
    {"compound": "CNC(=O)c1c(-c2ccc(Oc3ccc(F)cc3)cc2)oc2cc3c(cc12)[C@H](C)OC(C)(C)CN3S(C)(=O)=O", "note": "(single isomer, unassigned) [Compound B176]", "values": [
      {"measurement": "EC50", "setting": "HCV NS5B C316Y mutant", "value": "200 to 1000", "unit": "nM"},
      {"measurement": "EC50", "setting": "[1]; [2]", "value": "10 to 100", "unit": "nM"},
      {"measurement": "EC50", "setting": "[1]; [3]", "value": 13.6, "unit": "nM"},
      {"measurement": "EC50", "setting": "HCV NS5B S365A mutant", "value": "200 to 1000", "unit": "nM"}
    ]},
    {"compound": "CNC(=O)c1c(-c2ccc(F)cc2)oc2cc3c(cc12)[C@H](C)N(C)C(=O)CN3S(C)(=O)=O", "note": "(single isomer, unassigned) [Compound B179]", "values": [
      {"measurement": "Inhibition of HCV N55B C316Y mutant", "setting": "HCV NS5B C316Y mutant", "value": "†††"},
      {"measurement": "EC50", "setting": "[1]; [2]", "value": "10 to 100", "unit": "nM"},
      {"measurement": "EC50", "setting": "[1]; [4]", "value": "10 to 100", "unit": "nM"},
      {"measurement": "EC50", "setting": "HCV NS5B S365A mutant", "value": "200 to 1000", "unit": "nM"}
    ]},
    {"compound": "CNC(=O)c1c(-c2ccc(F)cc2)oc2cc3c(cc12)[C@H](C)OC(C)(C)CN3S(C)(=O)=O", "note": "(single isomer, unassigned) [Compound B184]", "values": [
      {"measurement": "EC50", "setting": "HCV NS5B C316Y mutant", "value": "> 1000", "unit": "nM"},
      {"measurement": "EC50", "setting": "[1]; [2]", "value": "10 to 100", "unit": "nM"},
      {"measurement": "EC50", "setting": "[1]; [3]", "value": 16.5, "unit": "nM"},
      {"measurement": "EC50", "setting": "HCV NS5B S365A mutant", "value": "200 to 1000", "unit": "nM"}
    ]},
    {"compound": "CNC(=O)c1c(-c2ccc(Oc3ccc(F)cc3)cc2)oc2cc3c(cc12)[C@H](C)OC1(CC1)CN3S(C)(=O)=O", "note": "(single isomer, unassigned) [Compound B187]", "values": [
      {"measurement": "EC50", "setting": "HCV NS5B C316Y mutant", "value": "> 1000", "unit": "nM"},
      {"measurement": "EC50", "setting": "[1]; [2]", "value": "≤ 10", "unit": "nM"},
      {"measurement": "EC50", "setting": "[1]; [4]", "value": "< 10", "unit": "nM"},
      {"measurement": "EC50", "setting": "HCV NS5B S365A mutant", "value": "> 1000", "unit": "nM"}
    ]},
    {"compound": "CNC(=O)c1c(-c2ccc(F)cc2)oc2cc3c(cc12)[C@H](C)OC1(CC1)CN3S(C)(=O)=O", "note": "(single isomer, unassigned) [Compound B193]", "values": [
      {"measurement": "EC50", "setting": "HCV NS5B C316Y mutant", "value": "200 to 1000", "unit": "nM"},
      {"measurement": "EC50", "setting": "[1]; [2]", "value": "10 to 100", "unit": "nM"},
      {"measurement": "EC50", "setting": "[1]; [4]", "value": "10 to 100", "unit": "nM"},
      {"measurement": "EC50", "setting": "HCV NS5B S365A mutant", "value": "200 to 1000", "unit": "nM"}
    ]},
    {"compound": "CNC(=O)c1c(-c2ccc(F)cc2)oc2cc3c(cc12)[C@H](C)NC(=O)CN3S(C)(=O)=O", "note": "(single isomer, unassigned) [Compound B208]", "values": [
      {"measurement": "Inhibition of HCV N55B C316Y mutant", "setting": "HCV NS5B C316Y mutant", "value": "†††"},
      {"measurement": "EC50", "setting": "[1]; [2]", "value": "≤ 10", "unit": "nM"},
      {"measurement": "EC50", "setting": "[1]; [4]", "value": "< 10", "unit": "nM"},
      {"measurement": "Inhibition of HCV NS5B S3865A mutant", "setting": "HCV NS5B S365A mutant", "value": "†††"}
    ]},
    {"compound": "CNC(=O)c1c(-c2ccc(F)cc2)oc2cc3c(cc12)CCCN3S(C)(=O)=O", "note": "[Compound B1]", "values": [
      {"measurement": "Inhibition of HCV N55B C316Y mutant", "setting": "HCV NS5B C316Y mutant", "value": "††† (EC50 ≦ 200 nM)"},
      {"measurement": "EC50", "setting": "[1]; [4]", "value": "100 to 1000", "unit": "nM"},
      {"measurement": "Inhibition of HCV NS5B S3865A mutant", "setting": "HCV NS5B S365A mutant", "value": "††† (EC50 ≦ 200 nM)"}
    ]},
    {"compound": "C=CC1CCCN(S(C)(=O)=O)c2cc3oc(-c4ccc(F)cc4)c(C(=O)NC)c3cc21", "note": "(stereo not drawn) [Compound B60]", "values": [
      {"measurement": "EC50", "setting": "HCV 2a", "value": "10 to 100", "unit": "nM"},
      {"measurement": "EC50", "setting": "[1]; [2]", "value": "10 to 100", "unit": "nM"}
    ]},
    {"compound": "CCC1CCCN(S(C)(=O)=O)c2cc3oc(-c4ccc(F)cc4)c(C(=O)NC)c3cc21", "note": "(stereo not drawn) [Compound B63]", "values": [
      {"measurement": "EC50", "setting": "HCV 2a", "value": "10 to 100", "unit": "nM"},
      {"measurement": "EC50", "setting": "[1]; [2]", "value": "10 to 100", "unit": "nM"}
    ]},
    {"compound": "CS(=O)(=O)N1CCCCc2cc3c(-c4ncc[nH]4)c(-c4ccc(F)cc4)oc3cc21", "note": "[Compound B67]", "values": [
      {"measurement": "Inhibition of HCV N55B C316Y mutant", "setting": "HCV NS5B C316Y mutant", "value": "†††"},
      {"measurement": "EC50", "setting": "[1]; [2]", "value": "≤ 10", "unit": "nM"},
      {"measurement": "EC50", "setting": "[1]; [3]", "value": 5.2, "unit": "nM"},
      {"measurement": "EC50", "setting": "HCV NS5B S365A mutant", "value": "200 to 1000", "unit": "nM"}
    ]},
    {"compound": "CNC(=O)c1c(-c2ccc(F)cc2)oc2cc3c(cc12)C(OC)CCCN3S(C)(=O)=O", "note": "(stereo not drawn) [Compound B71]", "values": [
      {"measurement": "EC50", "setting": "HCV 2a", "value": "10 to 100", "unit": "nM"},
      {"measurement": "EC50", "setting": "[1]; [2]", "value": "10 to 100", "unit": "nM"}
    ]},
    {"compound": "CNC(=O)c1c(-c2ccc(Oc3ccc(F)cc3)cc2)nn2cc3c(cc12)C(C)CCCN3S(C)(=O)=O", "note": "(stereo not drawn) [Compound B76]", "values": [
      {"measurement": "EC50", "setting": "HCV 2a", "value": "100 to 1000", "unit": "nM"}
    ]}
  ]
}
